Measurements published in patent US11613552B2, “Pharmaceutical agents, compositions, and methods relating thereto” (Alltech, Inc., priority 2017, dated 2023).

Legend:
Insrβ/Pdk1/Akt/AS160 = assay: Western blot of Insrβ/Akt/AS160 phosphorylation in differentiated C2C12 cells; assay type: cell-based, mouse; conditions: for pInsrβ levels: 200 nM insulin or 600 ppb Compound #43, prolonged treatment 60 minutes
Method: To differentiate the C2C12 cells, equal number of these myoblast cells were firstly seeded on 12-well plates (60,000 cells/well) and cultured in 10% FBS DMEM media at 37° C. for 5 days. These cells were replenished daily with fresh 10% FBS DMEM media. At day 5 after the culture, C2C12 cells were differentiated using 0.5% horse serum (Sigma)-containing DMEM media (differentiation media) for 7 days with daily replacement of fresh differentiation media, similar to previous described (Misu et al, Cell Metabolism 12, 483-495, 2010). At day 7 after the differentiation, differentiated C2C12 cells were rinsed with PBS twice and incubated in serum-free DMEM media overnight. Then these serum-starved cells were treated without (basal) or with insulin (200 nM), Compound #43 (600 ppb), or both insulin and Compound #43 in serum-free DMEM media at 37° C. for 5 and 60 minutes.
After the above treatments, cultured HepG2 cells or differentiated C2C12 cells were rinsed twice with ice-cold PBS and lysed in ice-cold RIPA buffer containing complete proteinase and phosphatase inhibitors (Thermo-Fisher Scientific, Waltham, Mass.) on ice for 30 min. Cell lysates were collected using a cell scraper and transfer pipette, and then centrifuged at 12000×g for 30 min at 4° C. to remove the DNA pellet and obtain the protein extract. Protein levels in the supernatant of these cell lysates were determined using the Pierce Micro-BCA protein assay kit (Thermo Scientific-Piece Biotechnology, Rockford, Ill.) according to the manufacturer's protocol.
One hundred micrograms of skeletal muscle or liver tissue proteins, five micrograms of HepG2 cell protein extracts, or eight micrograms of differentiated C2C12 cell protein extracts were subjected to SDS-PAGE gel separation and then transferred to PVDF membranes, as described previously (Reddy et al. 2008 Science). Membranes were blocked in a phosphate-buffered saline (PBS) containing 5% (w/v) of bovine serum albumin (Sigma, St. Louis, Mo.) and incubated with specific primary antibodies followed by the incubation with HRP-conjugated anti-mouse or anti-rabbit secondary antibodies (1:5000 dilution, Cell Signaling Inc.). All primary antibodies were purchased from Cell Signaling Inc, except the antibodies against β-tubulin (LI-COR bioscience). Positive signals on the membrane blots were detected using the Amersham's enhanced chemiluminescence Western Blotting Prime Detection reagents (GE Healthcare Lifescience, Pittsburgh, Pa.). Images of these luminescence signals on the membrane blots were captured using the LI-COR Odyssey Fc Image system (Lincoln, Nebr.). The same membrane blot was stripped and re-blotted with another antibody as described in the GE WB ECL-prime-detection protocol (GE healthcare Lifescience, Pittsburgh, Pa.). Protein band densities in the Western blots were determined using the NIH ImageJ software and then normalized by β-tubulin or ACTB protein level in each sample. Data are presented as mean±SEM of 3-5 samples per group.

G6pc = assay: QRT-PCR of 8-CPT/Dex-induced G6pc expression in AML-12 cells; assay type: cell-based, mouse; conditions: for G6pc mRNA level normalized by non-8-CPT/Dex-treated group: with 8-CPT/Dex (8-CPT/Dex alone 41.5)
Method: For RNA analysis of the diabetic stimuli-induced G6pc expression, the AML-12 cells were pretreated without or with Compound #43 (150 or 300 ppb) in 10% FBS but ITS/Dex-free DMEM/F12 media for 24 hr. Then these cells were washed twice with PBS remove any residual sera, and incubated with Compound #43 (150 or 300 ppb) in the presence or absence of insulin (10 or 100 nM), or 0.1 mM 8-CPT (Sigma) and 0.5 μM Dex in serum-free plain DMEM/F12 media for another 6 hours.
Total RNA from saline- or selenium compound-treated Lepr^db/db mice was isolated using a Qiagen RNAeasy RNA isolation kit according to the Manufacturer's protocol. Total RNA from cultured cells was isolated using Trizol (Invitrogen) according to the manufacturer's protocol, and then incubated with DNase I to remove any potential contaminating genomic DNA. RNA samples were subjected to real-time PCR (QRT-PCR) analysis using Applied-Bioscience's RT kit and predesigned Taqman probes (Invitrogen), as described previously (Lan et al EMBO J 2003). Data were normalized by Actin B (Actb) mRNA levels in each sample, and are presented as mean±SEM of 3-5 samples.

AML-12 cells = assay: Glucose uptake assay in AML-12 cells; assay type: cell-based, mouse
Method: Equal numbers of amplified AML-12 cells were seeded on 96 well plates (1.5×10^5/well) and cultured in 10% FBS but ITS/Dex-free DMEM/F12 media overnight. Then these cells were washed twice with PBS (to remove any potential residual sera), and serum-starved in plain DMEM/F12 media overnight. These serum-starved AML-12 cells were treated without (basal), with insulin (10 and 100 nM) or Compound #43 (150, 300 and 600 ppb) in glucose/phenol red-free DMEM media at 37° C. for 1.5 hr. After treatment, media was removed and cells were washed once with PBS and incubated with 1 mM 2-deoxyglucose (2DG) at room temperature for 30 min. The 2DG-treated cells were then subjected to glucose uptake measurement using Promega's Glucose Uptake-Glo Assay kit, according to the manufacturer's protocol. Luminescent signals were recorded using a Bio-Tek luminometer.

[1] = target: T1, native insulin receptor (Insr) (Rattus norvegicus, UniProt P15127); assay: In vitro cell-free phosphorylation of native insulin receptor; assay type: biochemical
T1 construct: native insulin receptor proteins, containing both alpha and beta subunits; purchased Sigma I9266; host or cells: purified from rat liver tissue
T1 sequence (P15127 764-1383 limits assumed): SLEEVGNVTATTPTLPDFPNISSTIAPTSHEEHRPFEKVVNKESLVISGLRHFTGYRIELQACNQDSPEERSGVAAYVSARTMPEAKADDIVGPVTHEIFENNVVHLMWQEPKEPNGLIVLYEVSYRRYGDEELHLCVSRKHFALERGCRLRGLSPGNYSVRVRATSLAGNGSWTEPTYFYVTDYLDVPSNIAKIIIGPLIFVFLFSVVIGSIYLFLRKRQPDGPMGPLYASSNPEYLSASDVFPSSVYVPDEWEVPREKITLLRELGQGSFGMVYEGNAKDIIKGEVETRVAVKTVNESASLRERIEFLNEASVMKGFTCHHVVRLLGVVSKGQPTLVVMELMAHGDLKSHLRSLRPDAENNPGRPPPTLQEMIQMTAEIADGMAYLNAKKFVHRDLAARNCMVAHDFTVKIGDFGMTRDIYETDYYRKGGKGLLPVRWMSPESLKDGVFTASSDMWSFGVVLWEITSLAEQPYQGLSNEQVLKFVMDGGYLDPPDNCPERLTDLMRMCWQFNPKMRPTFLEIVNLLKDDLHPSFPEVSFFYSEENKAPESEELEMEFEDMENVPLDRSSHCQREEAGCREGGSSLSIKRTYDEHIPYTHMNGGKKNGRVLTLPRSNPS
T1 sequence (P15127 27-759 partner limits assumed): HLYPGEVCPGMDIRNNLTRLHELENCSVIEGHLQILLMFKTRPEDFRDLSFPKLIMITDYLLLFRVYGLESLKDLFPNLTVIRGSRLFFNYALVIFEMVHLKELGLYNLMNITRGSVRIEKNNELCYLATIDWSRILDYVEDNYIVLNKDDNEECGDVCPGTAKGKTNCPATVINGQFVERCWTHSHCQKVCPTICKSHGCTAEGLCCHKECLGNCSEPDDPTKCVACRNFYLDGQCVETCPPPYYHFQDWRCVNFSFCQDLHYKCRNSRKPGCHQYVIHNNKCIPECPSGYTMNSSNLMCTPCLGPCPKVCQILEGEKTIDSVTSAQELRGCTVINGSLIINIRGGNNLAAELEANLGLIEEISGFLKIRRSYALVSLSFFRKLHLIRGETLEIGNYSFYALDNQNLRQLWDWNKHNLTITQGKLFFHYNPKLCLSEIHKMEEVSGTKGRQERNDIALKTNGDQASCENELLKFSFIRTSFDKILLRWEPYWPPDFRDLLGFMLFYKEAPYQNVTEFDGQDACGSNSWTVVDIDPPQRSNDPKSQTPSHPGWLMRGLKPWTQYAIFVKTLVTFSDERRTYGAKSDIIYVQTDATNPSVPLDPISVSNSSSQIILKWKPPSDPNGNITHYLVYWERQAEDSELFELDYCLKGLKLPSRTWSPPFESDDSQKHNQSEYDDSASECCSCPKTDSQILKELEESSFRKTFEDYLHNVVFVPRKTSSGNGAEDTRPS
Method: In vitro phosphorylation of Insr was performed according to Sigma's protocol with the following modifications. In brief, 10 μl of native insulin receptor solution containing 0.8 μl of original native INSR stock solution (Sigma, Catalog #I9266; diluted in enzyme dilution buffer containing 50 mM HEPES, pH 7.6, 150 mM NaCl and 0.1% Triton X-100) were incubated with equal volume of solutions containing insulin (Sigma), DMSO (Compound #43 solvent), Compound #43 or Compound #68 (diluted in 50 mM HEPES, pH 7.6 and 100 μg/ml bovine serum albumin) on ice for 30 min. Then 20 μl of 2× kinase buffer containing 0.2 mM ATP, 50 mM HEPES, pH 7.6, 50 mM MgCl2 and 4 mM MnCl2 were added to the above reactions, mixed and incubated on ice for 45 minutes.
Five microliters of the above reactions were immediately subjected to Western blot analysis using specific antibodies against phosphorylated tyrosine residues at 1146, 1150 and 1151 of Insrβ proteins (Cell Signaling Inc.). Protein band density was determined using the NIH Image J software.

[2] = 200 nM insulin or 600 ppb Compound #43, 5 minutes
[3] = 200 nM insulin or 600 ppb Compound #43, 60 minutes

C[Se]C[C@H]1O[C@@H](n2cnc3c(N)ncnc32)C(OC(C)=O)C1OC(C)=O (stereo partly drawn) [Compound #43, Adenosine, 5′-Se-methyl-5′-selino-, 2′,3′-diacetate]
pInsrβ at Y1146 (Insrβ/Pdk1/Akt/AS160; [2]): significant increase of pInsrβ at Y1146
phosphorylated Akt protein levels (Insrβ/Pdk1/Akt/AS160; [2]): did not cause a significant increase of phosphorylated Akt protein levels
phosphorylated Akt protein levels (Insrβ/Pdk1/Akt/AS160; [3]): robust increased of phosphorylated Akt proteins levels
pInsrβ levels (Insrβ/Pdk1/Akt/AS160): decrease in pInsrβ levels
phosphorylated AS160 and total AS160 protein levels (Insrβ/Pdk1/Akt/AS160; 600 ppb alone, 5 minutes): did not affect the protein levels of phosphorylated AS160 and total AS160
increase in phosphorylated AS160 at S588 (Insrβ/Pdk1/Akt/AS160; 600 ppb, 60 minutes): about 6 fold
pInsrβ protein levels (Insrβ/Pdk1/Akt/AS160; co-treatment insulin 200 nM and Compound #43 600 ppb, 5 minutes): tended to increase pInsrβ protein levels
phosphorylated AS160 protein levels (Insrβ/Pdk1/Akt/AS160; co-treatment insulin and Compound #43, 5 and 60 minutes): significant increase of phosphorylated AS160 protein levels
pAkt protein levels (Insrβ/Pdk1/Akt/AS160; co-treatment insulin and Compound #43, both tested time points): significant increase of pAkt protein levels
reduction of 8-CPT/Dex-induced G6pc expression vs 8-CPT/Dex group (G6pc; 150 and 300 ppb alone): ~68%
effect on 8-CPT/Dex-induced G6pc expression (G6pc; 150 or 300 ppb co-treated with 100 nM insulin): almost completely abolished 8-CPT/Dex-induced G6pc expression
G6pc mRNA level normalized by non-8-CPT/Dex-treated group (G6pc; 150 ppb, Column #5 FIG. 11): 13
G6pc mRNA level normalized by non-8-CPT/Dex-treated group (G6pc; 300 ppb, Column #8 FIG. 11): 13.5
effect on glucose uptake (AML-12 cells; 150, 300 and 600 ppb, 1.5 hr (FIG. 17)): significant increase of glucose uptake
extent of increased glucose uptake (AML-12 cells; 600 ppb, 1.5 hr): comparable to 100 nM insulin
time to stimulate glucose uptake (AML-12 cells; serum-free): less than 1.5 hr
phosphorylation of Insrβ at Y1146/1150/1151 ([1]; doses of 1.9 and 3.8, cell-free (FIG. 26)): significantly enhance the phosphorylation of Insrβ at Y1146/1150/1151

insulin: insulin purchased from Sigma, positive control
pInsrβ at Y1146 (Insrβ/Pdk1/Akt/AS160; [2]): significant increase of pInsrβ at Y1146
phosphorylated Akt protein levels (Insrβ/Pdk1/Akt/AS160; [2]): significant increase of phosphorylated Akt
phosphorylated Akt protein levels (Insrβ/Pdk1/Akt/AS160; [3]): not observed
pInsrβ levels (Insrβ/Pdk1/Akt/AS160): decrease in pInsrβ levels
increase in phosphorylation of AS160 at S588 (Insrβ/Pdk1/Akt/AS160; 200 nM insulin, 5 min): about 2 fold
phosphorylated AS160 (Insrβ/Pdk1/Akt/AS160; 200 nM insulin, 60 minutes): no obvious increase in phosphorylated AS160
effect on 8-CPT/Dex-induced G6pc expression (G6pc; 10 nM and 100 nM insulin, 6 hr): significantly decreased 8-CPT/Dex-induced G6pc expression
effect on glucose uptake (AML-12 cells; 10 nM insulin, 1.5 hr): did not enhance the glucose uptake
effect on glucose uptake (AML-12 cells; 100 nM insulin, 1.5 hr): significant increase of glucose uptake
phosphorylation of Insrβ at Y1146/1150/1151 ([1]; insulin 0.5 μM, cell-free (FIG. 26)): able to induce the phosphorylation of Insrβ at Y1146/1150/1151
